Assay results taken from the supplement of paper PMC11061612.

Assays:
[1] = tested on: HTC-C3 (Thyroid Gland Carcinoma); experiment: Bliss excess, mean over the matrix (fraction); higher = more synergy
Procedure, shortened: (§1)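 After 24 hours at 37°C and 5% CO2 in 1536-well plates, cells in DMEM/F12 or RPMI plus 10% FBS received two-drug dose matrices for 72 hours. Viability came from CellTiter-Glo 2.0 luminescence and was scaled as inhibition, anchored at 0 by vehicle wells and at 1 by blank wells. Combination Emax is taken as the second-highest inhibition in the matrix, and Bliss excess as the observed combination effect less EA + EB − EA·EB, with EA and EB the single-agent effects.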

[2] = tested on: RERF-LC-KJ (Lung Adenocarcinoma); experiment: as above
Procedure, shortened: as §1

[3] = tested on: OCI-AML5 (Acute Myeloid Leukemia); experiment: as above
Procedure, shortened: as §1

[4] = tested on: NCI-H810 (Non-Small Cell Lung Carcinoma); experiment: as above
Procedure, shortened: as §1

[5] = tested on: PANC-02-03 (Pancreatic Carcinoma); experiment: as above
Procedure, shortened: as §1

ES-2 (Ovarian Carcinoma) = experiment: as above
Procedure, shortened: as §1

[6] = tested on: AN3-CA (Endometrial Carcinoma); experiment: as above
Procedure, shortened: as §1

[7] = tested on: Caov-3 (Ovarian Carcinoma); experiment: as above
Procedure, shortened: as §1

[8] = tested on: BALL-1 (B-Lymphoblastic Leukemia); experiment: as above
Procedure, shortened: as §1

[9] = tested on: PC-14 (Lung Adenocarcinoma); experiment: as above
Procedure, shortened: as §1

[10] = tested on: LOUCY (T-Lymphoblastic Leukemia); experiment: as above
Procedure, shortened: as §1

[11] = tested on: SNU-175 (Colorectal Carcinoma); experiment: as above
Procedure, shortened: as §1

786-0 (Kidney Carcinoma) = experiment: as above
Procedure, shortened: as §1

[12] = tested on: NKM-1 (Acute Myeloid Leukemia); experiment: as above
Procedure, shortened: as §1

[13] = tested on: NCI-H1563 (Lung Adenocarcinoma); experiment: as above
Procedure, shortened: as §1

[14] = tested on: SW684 (Other Solid Carcinomas); experiment: as above
Procedure, shortened: as §1

RT4 (Bladder Carcinoma) = experiment: as above
Procedure, shortened: as §1

[15] = tested on: RMG-I (Ovarian Carcinoma); experiment: as above
Procedure, shortened: as §1

[16] = tested on: RL95-2 (Endometrial Carcinoma); experiment: combination Emax (second highest fraction inhibited in the dose matrix, 72 h); higher = more inhibition; extreme values may be limits of the assay
Procedure, shortened: as §1

[17] = tested on: NKM-1 (Acute Myeloid Leukemia); experiment: as above
Procedure, shortened: as §1
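Throughout, for Bliss excess, mean over the matrix: after 72 h of two-drug dosing.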

| SMILES | Bliss excess [1] | Bliss excess [2] | Bliss excess [3] | Bliss excess [4] | Bliss excess [5] | Bliss excess (ES-2 (Ovarian Carcinoma)) | Bliss excess [6] | Bliss excess [7] | Bliss excess [8] | Bliss excess [9] | Bliss excess [10] | Bliss excess [11] | Bliss excess (786-0 (Kidney Carcinoma)) | Bliss excess [12] | Bliss excess [13] | Bliss excess [14] | Bliss excess (RT4 (Bladder Carcinoma)) | Bliss excess [15] | combination Emax [16] | combination Emax [17] |
| --- | --- | --- | --- | --- | --- | --- | --- | --- | --- | --- | --- | --- | --- | --- | --- | --- | --- | --- | --- | --- |
| COc1cccc(OCCCN)c1-c1cc(Nc2cnc(C#N)cn2)n[nH]1 [Prexasertib] + Cc1cc2ncnn2cc1Nc1ncc2c(n1)n(C1CCOCC1)c(=O)n2C [AZD7648] (first compound max 1 µM, 7x7, partner max 10 µM) | -0.018 | 0.0558 | 0.0718 | 0.0108 | -0.0019 | -0.0357 | -0.0393 | -0.0376 | 0.0202 | -0.037 | -0.0021 | 0.0311 | -0.0276 | -0.0271 | -0.0146 | -0.0408 | -0.0045 | -0.0235 | 0.893 | 0.965 |
| Cc1c2c(nn1C)CSCc1cc(n(C)n1)CSc1cc(c3ccccc3c1)OCCCc1c(C(=O)O)n(C)c3c-2c(Cl)ccc13 [AZD5991] + CCN(CCO)CCCOc1ccc2c(Nc3cc(CC(=O)Nc4cccc(F)c4)[nH]n3)ncnc2c1 [AZD2811] (first compound max 1 µM, 7x7, partner max 1 µM) | 0.0318 | 0.0402 | -0.0165 | 0.114 | -0.0029 | -0.0298 | 0.0922 | 0.0236 | 0.213 | 0.0381 | -0.0389 | -0.0794 | -0.0142 | 0.0291 | -0.0248 | -0.069 | 0.11 | 0.0126 | 1 | 0.969 |
| C=CCn1c(=O)c2cnc(Nc3ccc(N4CCN(C)CC4)cc3)nc2n1-c1cccc(C(C)(C)O)n1 [AZD1775] + O=C(c1cc(Cc2n[nH]c(=O)c3ccccc23)ccc1F)N1CCN(C(=O)C2CC2)CC1 [Olaparib] (first compound max 1 µM, partner max 10 µM) | -0.0064 | -0.035 | -0.0096 | -0.038 | -0.0513 | -0.0517 | 0.0003 | -0.0396 | 0.0054 | -0.0248 | 0.0492 | -0.0028 | -0.0097 | -0.0375 | -0.0288 | -0.0689 | 0.0107 | -0.0105 | 0.486 | 0.945 |
| Cc1c2c(nn1C)CSCc1cc(n(C)n1)CSc1cc(c3ccccc3c1)OCCCc1c(C(=O)O)n(C)c3c-2c(Cl)ccc13 [AZD5991] + Cc1cc2ncnn2cc1Nc1ncc2c(n1)n(C1CCOCC1)c(=O)n2C [AZD7648] (first compound max 1 µM, 7x7, partner max 10 µM) | -0.0558 | 0.0171 | 0.0059 | -0.0484 | -0.0151 | -0.0545 | -0.0411 | -0.0436 | -0.0064 | -0.0088 | -0.0479 | -0.0125 | -0.0341 | -0.0265 | -0.0185 | -0.0222 | -0.0301 | -0.0389 | 0.999 | 0.984 |
| CN(C)CCCOc1ccc(-c2ccc3ncc4c(c3c2)n(C2CCOCC2)c(=O)n4C)cn1 [AZD0156] + CCN(CCO)CCCOc1ccc2c(Nc3cc(CC(=O)Nc4cccc(F)c4)[nH]n3)ncnc2c1 [AZD2811] (first compound max 1 µM, 7x7, partner max 1 µM) | -0.0198 | -0.004 | -0.0185 | 0.0302 | -0.0371 | -0.0163 | -0.0019 | -0.0478 | 0.171 | -0.0042 | -0.0646 | -0.0101 | -0.0107 | -0.031 | -0.006 | -0.0583 | -0.0063 | -0.072 | 0.557 | 0.473 |
| COc1cccc2c1C(=O)c1c(O)c3c(c(O)c1C2=O)C[C@@](O)(C(=O)CO)C[C@@H]3O[C@H]1C[C@H](N)[C@H](O)[C@H](C)O1 [Doxorubicin] + Cc1cc2ncnn2cc1Nc1ncc2c(n1)n(C1CCOCC1)c(=O)n2C [AZD7648] (first compound max 1 µM, 7x7, partner max 10 µM) | 0.0263 | 0.0113 | 0.174 | 0.0213 | 0.0001 | 0.076 | -0.0534 | 0.024 | 0.117 | 0.0728 | 0.0893 | 0.0265 | 0.082 | 0.0803 | 0.0572 | -0.0211 | 0.039 | -0.0445 | 0.376 | 0.988 |
| Cc1c2c(nn1C)CSCc1cc(n(C)n1)CSc1cc(c3ccccc3c1)OCCCc1c(C(=O)O)n(C)c3c-2c(Cl)ccc13 [AZD5991] + C1CN(CCC1(C(=O)N[C@@H](CCO)C2=CC=C(C=C2)Cl)N)C3=NC=NC4=C3C=CN4 [Capivasertib] (first compound max 1 µM, 7x7, partner max 3 µM) | -0.0091 | -0.0112 | -0.0204 | 0.0083 | -0.037 | -0.0021 | 0.145 | -0.01 | 0.0369 | 0.0145 | 0.0143 | 0.0213 | -0.0189 | -0.0335 | 0.0837 | -0.0298 | 0.023 | -0.0488 | 1 | 0.999 |
| CC1(C)CCC(CN2CCN(c3ccc(C(=O)NS(=O)(=O)c4ccc(NCC5CCOCC5)c([N+](=O)[O-])c4)c(Oc4cnc5[nH]ccc5c4)c3)CC2)=C(c2ccc(Cl)cc2)C1 [Venetoclax] + COc1cc(Nc2ncc3c(n2)-c2ccc(Cl)cc2C(c2c(F)cccc2OC)=NC3)ccc1C(=O)O [Alisertib] (first compound max 1 µM, 7x7, partner max 10 µM) | -0.0285 | -0.0527 | 0.17 | 0.0303 | -0.0527 | -0.0017 | 0.0374 | -0.119 | 0.0181 | 0.0366 | 0.0646 | 0.007 | -0.0114 | 0.0087 | -0.0523 | -0.0688 | 0.0354 | -0.0513 | 0.588 | 0.98 |
| CC(=O)Nc1cccc(-n2c(=O)n(C3CC3)c(=O)c3c(Nc4ccc(I)cc4F)n(C)c(=O)c(C)c32)c1 [Trametinib] + Cc1nc(-c2cn3c(n2)-c2ccc(-c4cnn(C(C)(C)C(N)=O)c4)cc2OCC3)n(C(C)C)n1 [Taselisib] (first compound max 1 µM, 7x7, partner max 10 µM) | 0.113 | 0.0564 | 0.194 | -0.052 | 0.179 | 0.0915 | 0.0575 | 0.0289 | 0.142 | 0.163 | 0.0668 | 0.0779 | -0.0229 | 0.255 | 0.103 | 0.161 | 0.0566 | -0.0099 | 0.588 | 1 |
| CN(CCO)CC[C@H](CSc1ccccc1)Nc1ccc(S(=O)(=O)NC(=O)c2ccc(N3CCC([C@@H](O)c4ccccc4-c4ccc(Cl)cc4)CC3)cc2)cc1S(=O)(=O)C(F)(F)F [AZD4320] + Cn1cnc2c(F)c(Nc3ccc(Br)cc3Cl)c(C(=O)NOCCO)cc21 [Selumetinib] (first compound max 1 µM, 7x7, partner max 3 µM) | 0.069 | 0.0144 | 0.0137 | -0.0577 | -0.007 | 0.0164 | 0.0455 | -0.0406 | -0.0246 | 0.0379 | 0.0255 | 0.0316 | -0.0187 | -0.0208 | 0.045 | 0.0194 | 0.112 | -0.0401 | 0.667 | 1 |
| COc1cccc(OCCCN)c1-c1cc(Nc2cnc(C#N)cn2)n[nH]1 [Prexasertib] + CN(C)CCCOc1ccc(-c2ccc3ncc4c(c3c2)n(C2CCOCC2)c(=O)n4C)cn1 [AZD0156] (first compound max 1 µM, 7x7, partner max 1 µM) | -0.029 | -0.0159 | 0.0781 | -0.0327 | -0.0009 | 0.0072 | -0.0442 | -0.0134 | 0.0043 | -0.0284 | 0.0036 | 0.0462 | -0.0576 | -0.0165 | -0.0416 | -0.0432 | 0.0482 | -0.04 | 0.888 | 0.956 |
| Cc1cc2ncnn2cc1Nc1ncc2c(n1)n(C1CCOCC1)c(=O)n2C [AZD7648] + CN(C)CCCOc1ccc(-c2ccc3ncc4c(c3c2)n(C2CCOCC2)c(=O)n4C)cn1 [AZD0156] (first compound max 10 µM, 7x7, partner max 1 µM) | 0.0024 | 0.0285 | 0.0276 | 0.0125 | 0.0002 | 0.029 | -0.0224 | -0.0085 | -0.0108 | 0.0186 | 0.0007 | -0.0021 | 0.0224 | -0.0039 | -0.0164 | -0.056 | 0.0212 | -0.0322 | 0.246 | 0.384 |
| CN(CCO)CC[C@H](CSc1ccccc1)Nc1ccc(S(=O)(=O)NC(=O)c2ccc(N3CCC([C@@H](O)c4ccccc4-c4ccc(Cl)cc4)CC3)cc2)cc1S(=O)(=O)C(F)(F)F [AZD4320] + C1CN(CCC1(C(=O)N[C@@H](CCO)C2=CC=C(C=C2)Cl)N)C3=NC=NC4=C3C=CN4 [Capivasertib] (first compound max 1 µM, 7x7, partner max 3 µM) | -0.0498 | -0.0282 | 0.0104 | -0.0595 | -0.0617 | -0.0346 | -0.0186 | -0.0309 | 0.0012 | -0.03 | 0.0753 | -0.0205 | -0.0318 | 0.0099 | -0.0423 | -0.0619 | -0.0716 | -0.0527 | 0.533 | 1 |
| Cc1cc2ncnn2cc1Nc1ncc2c(n1)n(C1CCOCC1)c(=O)n2C [AZD7648] + C=CCn1c(=O)c2cnc(Nc3ccc(N4CCN(C)CC4)cc3)nc2n1-c1cccc(C(C)(C)O)n1 [AZD1775] (first compound max 10 µM, partner max 1 µM) | 0.0255 | 0.0509 | 0.0086 | -0.0103 | 0.0306 | 0.0248 | -0.0091 | -0.0869 | -0.0169 | -0.025 | 0.0464 | -0.0043 | 0.0502 | -0.0556 | -0.0041 | -0.017 | 0.0218 | 0.02 | 0.408 | 0.884 |
